In ChEMBL document CHEMBL1201862, “PubChem BioAssay data set” (2004):
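Each compound was tested at five concentrations against cells in 96-well plates for 48 hours. Here, GI50 denotes the concentration required for 50% inhibition of growth.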 Calls of active or inactive are those of the source. Rule as the data show it: active = GI50 up to about 1.1 µM and inactive = higher.

Key:
Assay in all cases: NCI anticancer screen, dose series, 48 h
[1] = tested on: CAKI-1
[2] = tested on: CCRF-CEM
[3] = tested on: HCC 2998
[4] = tested on: IGROV-1
[5] = tested on: KM12
[6] = tested on: NCI-H226
[7] = tested on: NCI-H23
[8] = tested on: NCI-H522
[9] = tested on: OVCAR-5
[10] = tested on: RXF 393
[11] = tested on: SF-295
[12] = tested on: SK-MEL-5
[13] = tested on: SN12C
[14] = tested on: SNB-19
[15] = tested on: SR
[16] = tested on: SW-620
[17] = tested on: T47D
[18] = tested on: UO-31
[19] = tested on: SF-539
[20] = tested on: EKVX

Measured: GI50

O=S(=O)(c1ccccc1)n1c2ccc(Br)cc2c2nc3ccccc3nc21
inactive: [1] > 100 µM | [2] > 100 µM | [3] > 100 µM | [4] > 100 µM | [5] > 100 µM | [6] 47.9 µM | [7] > 100 µM | [8] > 100 µM | [9] > 100 µM | [10] > 100 µM | [11] > 100 µM | [12] > 100 µM | [13] > 100 µM | [14] > 100 µM | [15] > 100 µM | [16] > 100 µM | [17] > 100 µM | [18] > 100 µM

CCOC(=O)Nn1c(CC#N)nnc1Cc1ccccc1
inactive: [1] > 100 µM | [3] > 100 µM | [4] > 100 µM | [5] > 100 µM | [6] > 100 µM | [7] > 100 µM | [8] > 100 µM | [9] > 100 µM | [10] > 100 µM | [11] > 100 µM | [19] > 100 µM | [12] > 100 µM | [13] > 100 µM | [14] > 100 µM | [15] > 100 µM | [16] > 100 µM | [17] 84.9 µM | [18] > 100 µM

O=C(CC(O)(C(F)(F)F)C(F)(F)F)C(c1ccccc1)C(O)(C(F)(F)F)C(F)(F)F (configuration not stated)
inactive: [1] 10.5 µM | [2] 5.56 µM | [20] 18.4 µM | [3] 9.1 µM | [4] 5.77 µM | [5] 8.55 µM | [6] 42.8 µM | [7] 6.47 µM | [8] 38.3 µM | [9] > 100 µM | [10] 5.14 µM | [11] 40 µM | [19] 17.1 µM | [12] 18.8 µM | [14] 18.3 µM | [15] 9.31 µM | [16] 14.4 µM | [17] 13.1 µM | [18] 10.3 µM

O=C(Nc1ccccc1)c1cc(S(=O)(=O)NC2=Nc3ccc(Cl)cc3C(c3ccccc3)N2)c(SSc2cc(Cl)c(C(=O)Nc3ccccc3)cc2S(=O)(=O)NC2=Nc3ccc(Cl)cc3C(c3ccccc3)N2)cc1Cl (configuration not stated)
inactive: [1] > 100 µM | [20] > 100 µM | [3] > 100 µM | [4] > 100 µM | [5] > 100 µM | [6] > 100 µM | [7] > 100 µM | [8] > 100 µM | [9] > 61.5 µM | [10] > 100 µM | [11] > 100 µM | [19] > 100 µM | [12] > 100 µM | [13] > 100 µM | [14] > 100 µM | [15] 13.6 µM | [16] > 100 µM | [17] > 100 µM | [18] > 100 µM

COc1ccc(N/N=C2\CCOc3ccc(C)cc3C2=O)cc1
inactive: [1] 27.9 µM | [2] 16.3 µM | [20] 21.3 µM | [3] 13.6 µM | [4] 17.7 µM | [5] 5.08 µM | [6] 27.4 µM | [8] 24.7 µM | [9] 91.4 µM | [11] 10.3 µM | [19] 40.6 µM | [12] 19.1 µM | [13] 40.6 µM | [14] 39.7 µM | [15] 15.6 µM | [16] 20 µM | [17] 2.14 µM | [18] 24 µM

COc1ccc(-n2nnc(C(N)=O)c2O)cc1
inactive: [1] > 100 µM | [2] > 100 µM | [20] > 100 µM | [3] > 100 µM | [4] > 100 µM | [5] > 100 µM | [6] > 100 µM | [7] > 100 µM | [8] > 100 µM | [9] > 100 µM | [10] > 100 µM | [11] > 100 µM | [12] > 100 µM | [13] > 100 µM | [14] > 100 µM | [15] > 100 µM | [16] > 100 µM | [17] > 100 µM | [18] 32.3 µM

c1ncn(C23C4C5C6C4C2C6C53)n1 (configuration not stated)
inactive: [2] > 100 µM | [20] > 100 µM | [3] > 100 µM | [4] > 100 µM | [5] > 100 µM | [6] > 100 µM | [7] > 100 µM | [8] > 100 µM | [9] > 100 µM | [11] > 100 µM | [19] > 100 µM | [12] > 100 µM | [13] > 100 µM | [14] > 100 µM | [15] > 100 µM | [16] > 100 µM | [17] > 100 µM

C=C1[C@H](OC(=O)C(C)C)[C@]23CC4(O)[C@@H]5[C@@]6(C)CCC[C@]57C([C@@H]2C[C@@]1(O)[C@H](O)[C@@H]73)N4C6
inactive: [1] > 100 µM | [2] > 100 µM | [20] > 100 µM | [3] 27 µM | [4] > 100 µM | [5] > 100 µM | [6] > 100 µM | [7] > 100 µM | [8] > 100 µM | [9] > 100 µM | [10] > 100 µM | [11] > 100 µM | [19] > 100 µM | [12] > 100 µM | [14] > 100 µM | [15] > 100 µM | [16] > 100 µM | [17] > 100 µM | [18] > 100 µM

CC(C)=CCC/C(C)=C/C=C/C(C)=C/C=C/C(C)=C/C=C/C=C(C)/C=C/C=C(C)/C=C/[C@H]1C(C(C)(C)O)CC[C@]1(C)O (some centres not stated)
inactive: [1] 33.5 µM | [2] 15.1 µM | [20] 40.6 µM | [3] 15.5 µM | [4] 20.2 µM | [5] 27.4 µM | [6] 71.1 µM | [7] 20.2 µM | [8] 17.3 µM | [9] 40 µM | [10] 17.3 µM | [11] 32.7 µM | [19] 29.2 µM | [12] 15.5 µM | [15] 23 µM | [16] 25.8 µM | [17] 22.9 µM | [18] 20.2 µM

CC(=O)NC1C(OCc2ccccc2)OC(CO)C(O)C1OC(C)C(=O)NC(C(=O)N[C@@H](CCC(=O)NCCNCCNc1c2ccccc2nc2cccc([N+](=O)[O-])c12)C(N)=O)C(C)C (some centres not stated)
inactive: [1] 30.3 µM | [2] 17.8 µM | [3] 21 µM | [4] 33.6 µM | [5] 26.5 µM | [6] > 100 µM | [7] 34 µM | [11] 48.5 µM | [19] 14.9 µM | [13] 20.9 µM | [14] 64.1 µM | [15] 1.78 µM | [16] 13.2 µM | [17] 68.2 µM | [18] 21.7 µM

CCOC(=O)C(NC(=O)OC(C)(C)C)C(=O)OCC
inactive: [1] > 100 µM | [2] > 100 µM | [20] > 100 µM | [3] > 100 µM | [4] > 100 µM | [5] > 100 µM | [7] > 100 µM | [8] > 100 µM | [9] > 100 µM | [10] > 100 µM | [12] 64.1 µM | [13] > 100 µM | [14] > 100 µM | [15] > 100 µM | [16] > 100 µM | [17] > 100 µM | [18] > 100 µM
